{"source": "patent US10294202B2", "about": "“Pyrrolidinones as herbicides” (FMC Corporation, priority 2013, dated 2019)", "key": {"ducksalad": {"test_system": "ducksalad", "experiment": "Test B flooded paddy test", "assay_type": "in vivo, Heteranthera limosa", "details": "250 g ai/ha, Flood; scale of 0 to 100 where 0 is no effect and 100 is complete control", "method_in_brief": "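Visual ratings from 0, meaning no effect, up to 100, meaning complete control, were made by comparison with untreated controls 13 to 15 days after treatment. Test compounds went straight into floodwater standing 3 cm over the soil of pots holding 2-leaf seedlings.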"}, "wheat": {"test_system": "wheat", "experiment": "Test A pre-/postemergence herbicide test", "assay_type": "in vivo, Triticum aestivum", "method_in_brief": "(§1)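 Formulated compound (non-phytotoxic solvent, surfactant) sprayed pre- onto soil of seeded loam/sand pots or post- onto seedlings at 1–2 leaves; ~10 d greenhouse; 0–100 visual control rating versus untreated.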"}, "morningglory": {"test_system": "morningglory", "experiment": "Test C pre-/postemergence herbicide test", "assay_type": "in vivo, Ipomoea coccinea", "method_in_brief": "(§2)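 Compound solutions contained surfactant in a non-phytotoxic solvent. These were sprayed onto pots of loam/sand sown with seeds, and onto young plants (2 to 18 cm, 1- to 4-leaf) in sphagnum peat–vermiculite mix. Visual injury scores (0 none, 100 complete control) were recorded after 13 to 15 days.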"}, "foxtail, giant": {"test_system": "foxtail, giant", "experiment": "Test C pre-/postemergence herbicide test", "assay_type": "in vivo, Setaria faberii", "method_in_brief": "as §2"}, "ragweed": {"test_system": "ragweed", "experiment": "Test A pre-/postemergence herbicide test", "assay_type": "in vivo, Ambrosia elatior", "details": "for Plant response rating, Ragweed: 0 to 100 scale", "method_in_brief": "as §1"}, "oilseed rape": {"test_system": "oilseed rape", "experiment": "Test C pre-/postemergence herbicide test", "assay_type": "in vivo, Brassica napus", "text": "(§3) Seeds of plant species selected from blackgrass (Alopecurus myosuroides), ryegrass, Italian (Italian ryegrass, Lolium multiflorum), wheat (winter wheat, Triticum aestivum), galium (catchweed bedstraw, Galium aparine), corn (Zea mays), crabgrass, large (large crabgrass, Digitaria sanguinalis), foxtail, giant (giant foxtail, Setaria faberii), johnsongrass (Sorghum halepense), lambsquarters (Chenopodium album), morningglory (Ipomoea coccinea), nutsedge, yellow (yellow nutsedge, Cyperus esculentus), pigweed (Amaranthus retroflexus), ragweed (common ragweed, Ambrosia elatior), soybean (Glycine max), barnyardgrass (Echinochloa crus-galli), oilseed rape (Brassica napus), waterhemp (common waterhemp, Amaranthus rudis), kochia (Kochia scoparia), oat, wild (wild oat, Avena fatua), surinam grass (Brachiaria decumbens), foxtail, green (green foxtail, Setaria viridis), goosegrass (Eleusine indica), bromegrass, downy (downy bromegrass, Bromus tectorum), nightshade (eastern black nightshade, Solanum ptycanthum), cocklebur (common cocklebur, Xanthium strumarium), cupgrass, woolly (woolly cupgrass, Eriochloa villosa), bermudagrass (Cynodon dactylon), sunflower, (common oilseed sunflower, Helianthus annuus), Russian thistle (Salsola kali) and velvetleaf (Abutilon theophrasti) were planted into a blend of loam soil and sand and treated preemergence with test chemicals formulated in a non-phytotoxic solvent mixture which included a surfactant. At the same time, plants selected from these crop and weed species and also barley (winter barley, Hordeum vulgare), […]), chickweed (common chickweed, Stellaria media), deadnettle (henbit deadnettle, Lamium amplexicaule), and canarygrass (littleseed canarygrass, Phalaris minor) were planted in pots containing Redi-Earth® planting medium (Scotts Company, 14111 Scottslawn Road, Marysville, Ohio 43041) comprising spaghnum peat moss, vermiculite, wetting agent and starter nutrients and treated with postemergence applications of test chemicals formulated in the same manner. Plants ranged in height from 2 to 18 cm (1- to 4-leaf stage) for postemergence treatments. Treated plants and controls were maintained in a greenhouse for 13 to 15 days, after which time all species were compared to controls and visually evaluated. Plant response ratings, summarized in Table C, are based on a scale of 0 to 100 where 0 is no effect and 100 is complete control. A dash (-) response means no test result."}, "barnyardgrass": {"test_system": "barnyardgrass", "experiment": "Test C pre-/postemergence herbicide test", "assay_type": "in vivo, Echinochloa crus-galli", "text": "as §3"}, "blackgrass": {"test_system": "blackgrass", "experiment": "Test A postemergence herbicide test", "assay_type": "in vivo, Alopecurus myosuroides", "method_in_brief": "(§4)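 Ratings compare treated with untreated plants roughly 10 days after a postemergence application made at the one- to two-leaf stage. Scoring uses 0–100, where 0 means no effect and 100 complete control.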"}, "galium": {"test_system": "galium", "experiment": "Test A postemergence herbicide test", "assay_type": "in vivo, Galium aparine", "method_in_brief": "as §4"}, "[1]": {"details": "Postemergence, 31 g ai/ha, scale 0 (no effect) to 100 (complete control)"}, "[2]": {"details": "Postemergence, 62 g ai/ha, scale 0 to 100 (0 no effect, 100 complete control)"}, "[3]": {"details": "Postemergence, 125 g ai/ha, scale 0 to 100 (0 no effect, 100 complete control)"}, "[4]": {"details": "Preemergence, 62 g ai/ha, scale 0 to 100"}, "[5]": {"details": "Preemergence, 125 g ai/ha, scale 0 to 100 (0 no effect, 100 complete control)"}, "[6]": {"details": "Postemergence, 31 g ai/ha, scale 0 to 100 (0 no effect, 100 complete control)"}, "[7]": {"details": "Postemergence, 62 g ai/ha, scale 0 (no effect) to 100 (complete control)"}, "[8]": {"details": "Postemergence, 250 g ai/ha, scale 0 to 100 (0 no effect, 100 complete control)"}, "[9]": {"details": "Preemergence, 31 g ai/ha, scale 0 to 100, 0 is no effect and 100 is complete control"}, "[10]": {"details": "Preemergence, 62 g ai/ha, scale 0 to 100 (0 no effect, 100 complete control)"}, "[11]": {"details": "125 g ai/ha, 0 to 100 scale, 0 is no effect, 100 is complete control"}}, "data": [{"smiles": "O=C1NCC(c2ccc(F)c(Cl)c2)C1C(=O)Nc1ccccc1F", "note": "(stereo not shown) [Compound 60]", "values": [{"measurement": "Plant response rating, Ducksalad", "setting": "ducksalad", "value": 90}, {"measurement": "Plant response rating, Wheat", "setting": "wheat; Postemergence, 125 g ai/ha, 0 to 100 scale, 0 no effect, 100 complete control", "value": 0}, {"measurement": "Plant response rating, Wheat", "setting": "wheat; Postemergence, 500 g ai/ha, 0 to 100 scale (0 no effect, 100 complete control)", "value": 50}, {"measurement": "Wheat plant response rating", "setting": "wheat; Preemergence, 125 g ai/ha, visual rating on 0 to 100 scale (0 no effect, 100 complete control)", "value": 0}, {"measurement": "Plant response rating, Wheat", "setting": "wheat; preemergence, 500 g ai/ha, 0 to 100 scale", "value": 0}, {"measurement": "Plant response rating, Morningglory", "setting": "morningglory; [1]", "value": 5}, {"measurement": "Plant response rating, Morningglory", "setting": "morningglory; [2]", "value": 10}, {"measurement": "Plant response rating, Morningglory", "setting": "morningglory; [3]", "value": 10}, {"measurement": "Plant response rating, Morningglory", "setting": "morningglory; [4]", "value": 10}, {"measurement": "Plant response rating, Morningglory", "setting": "morningglory; [5]", "value": 10}, {"measurement": "Plant response rating, Foxtail, Giant", "setting": "foxtail, giant; [1]", "value": 0}, {"measurement": "Plant response rating, Foxtail, Giant", "setting": "foxtail, giant; [2]", "value": 15}, {"measurement": "Plant response rating, Foxtail, Giant", "setting": "foxtail, giant; [3]", "value": 30}, {"measurement": "Plant response rating, Foxtail, Giant", "setting": "foxtail, giant; [4]", "value": 85}, {"measurement": "Plant response rating, Foxtail, Giant", "setting": "foxtail, giant; [5]", "value": 90}, {"measurement": "Foxtail, Giant plant response rating", "setting": "foxtail, giant; Preemergence, 31 g ai/ha, scale 0 to 100 (0 no effect, 100 complete control)", "value": 70}]}, {"smiles": "O=C1NC[C@H](c2cccc(C(F)(F)F)c2)[C@H]1C(=O)Nc1cccc(F)c1F", "note": "[Compound 206]", "values": [{"measurement": "Plant response rating, Ragweed", "setting": "ragweed; 125 g ai/ha, visual rating, 0 no effect, 100 complete control, approximately 10 days, preemergence", "value": 60}, {"measurement": "Plant response rating, Ragweed", "setting": "ragweed; Postemergence, 125 g ai/ha, 0 is no effect, 100 is complete control", "value": 0}, {"measurement": "Ragweed plant response rating (0 to 100 scale, 0 is no effect, 100 is complete control)", "setting": "ragweed; Postemergence, 500 g ai/ha", "value": 50}, {"measurement": "Plant response rating, Ragweed", "setting": "ragweed; preemergence, 500 g ai/ha, 0 is no effect and 100 is complete control", "value": 70}, {"measurement": "Plant response rating, Oilseed Rape", "setting": "oilseed rape; [6]", "value": 0}, {"measurement": "Plant response rating, Oilseed Rape", "setting": "oilseed rape; [7]", "value": 30}, {"measurement": "Plant response rating, Oilseed Rape", "setting": "oilseed rape; [3]", "value": 50}, {"measurement": "Plant response rating, Oilseed Rape", "setting": "oilseed rape; [8]", "value": 55}, {"measurement": "Oilseed Rape plant response rating", "setting": "oilseed rape; [9]", "value": 5}, {"measurement": "Oilseed Rape plant response rating", "setting": "oilseed rape; [10]", "value": 70}, {"measurement": "Plant response rating, Oilseed Rape", "setting": "oilseed rape; [5]", "value": 75}, {"measurement": "Plant response rating (scale of 0 to 100), Oilseed Rape", "setting": "oilseed rape; Preemergence, 250 g ai/ha", "value": 90}, {"measurement": "Plant response rating, Wheat", "setting": "wheat; Postemergence, 125 g ai/ha, 0 to 100 scale, 0 is no effect, 100 is complete control", "value": 70}, {"measurement": "Wheat plant response rating (0 to 100 scale, 0 is no effect, 100 is complete control)", "setting": "wheat; Postemergence, 500 g ai/ha", "value": 80}, {"measurement": "Plant response rating, Morningglory", "setting": "morningglory; [6]", "value": 20}, {"measurement": "Plant response rating, Morningglory", "setting": "morningglory; [7]", "value": 20}, {"measurement": "Plant response rating, Morningglory", "setting": "morningglory; [3]", "value": 35}, {"measurement": "Plant response rating, Morningglory", "setting": "morningglory; [8]", "value": 45}, {"measurement": "Morningglory plant response rating", "setting": "morningglory; [9]", "value": 0}, {"measurement": "Morningglory plant response rating", "setting": "morningglory; [10]", "value": 0}, {"measurement": "Plant response rating, Morningglory", "setting": "morningglory; [5]", "value": 0}, {"measurement": "Plant response rating (scale of 0 to 100), Morningglory", "setting": "morningglory; Preemergence, 250 g ai/ha", "value": 10}, {"measurement": "Plant response rating, Barnyardgrass", "setting": "barnyardgrass; [6]", "value": 25}, {"measurement": "Plant response rating, Barnyardgrass", "setting": "barnyardgrass; [7]", "value": 40}, {"measurement": "Plant response rating, Barnyardgrass", "setting": "barnyardgrass; [3]", "value": 80}, {"measurement": "Plant response rating, Barnyardgrass", "setting": "barnyardgrass; [8]", "value": 80}, {"measurement": "Barnyardgrass plant response rating", "setting": "barnyardgrass; [9]", "value": 90}, {"measurement": "Plant response rating, Barnyardgrass", "setting": "barnyardgrass; [4]", "value": 90}, {"measurement": "Plant response rating, Barnyardgrass", "setting": "barnyardgrass; [5]", "value": 95}, {"measurement": "Plant response rating (scale of 0 to 100; 0 is no effect, 100 is complete control), Barnyardgrass", "setting": "barnyardgrass; Preemergence, 250 g ai/ha", "value": 95}, {"measurement": "Plant response rating, Blackgrass", "setting": "blackgrass; [11]", "value": 70}, {"measurement": "Blackgrass plant response rating (0 to 100 scale, 0 is no effect, 100 is complete control)", "setting": "blackgrass; 500 g ai/ha", "value": 80}, {"measurement": "Plant response rating, Foxtail, Giant", "setting": "foxtail, giant; [6]", "value": 0}, {"measurement": "Plant response rating, Foxtail, Giant", "setting": "foxtail, giant; [7]", "value": 50}, {"measurement": "Plant response rating, Foxtail, Giant", "setting": "foxtail, giant; [3]", "value": 50}, {"measurement": "Plant response rating, Foxtail, Giant", "setting": "foxtail, giant; [8]", "value": 85}, {"measurement": "Foxtail, Giant plant response rating", "setting": "foxtail, giant; [9]", "value": 90}, {"measurement": "Foxtail, Giant plant response rating", "setting": "foxtail, giant; [10]", "value": 90}, {"measurement": "Plant response rating, Foxtail, Giant", "setting": "foxtail, giant; [5]", "value": 95}, {"measurement": "Plant response rating (scale of 0 to 100), Foxtail, Giant", "setting": "foxtail, giant; Preemergence, 250 g ai/ha", "value": 95}, {"measurement": "Plant response rating, Galium", "setting": "galium; [11]", "value": 70}, {"measurement": "Galium plant response rating (0 to 100 scale, 0 is no effect, 100 is complete control)", "setting": "galium; 500 g ai/ha", "value": 80}]}]}
